Reference: paper PMC8398766, “Do Small Molecules Activate the TrkB Receptor in the Same Manner as BDNF? Limitations of Published TrkB Low Molecular Agonists and Screening for Novel TrkB Orthosteric Agonists” (Pharmaceuticals, 2021)
Several values for one entry are separate records, joined by “and”; a condition that tells them apart may be missing. Identical values can stand only once. Like-named read-outs stand apart in the source and are kept apart here.

What was measured:
in vivo = format: in vivo, BALB/c mice
Experimental: The animals were obtained from the Center of Experimental Medicine (University of Bialystok, Bialystok, Poland) and housed under standard laboratory conditions. Mice had unlimited access to water and food. All the procedures were conducted according to the guidelines of the local ethical commission (appl no. 06/2019, perm. no 10/2019). […] Four animals per time point were sacrificed at 10 min, 30 min, 1 h, 2 h, and 4 h after per os administration and 5 min, 10 min, 30 min, 1 h, and 2 h after i.v. administration. The blood (0.5 mL) was collected by heart puncture using probes with anticoagulants (K2EDTA). Plasma samples were obtained by blood centrifugation (15 min, 3000× g at 23 °C). The whole brain was dissected from the skull and washed with cold 0.9% NaCl on ice. The left hemisphere was quickly frozen in liquid nitrogen and stored at −80 °C for further bioanalytical analysis. From the right hemisphere, the hippocampus and frontal cortex were isolated, weighed, and stored at −80 °C after freezing in liquid nitrogen. Isolated structures were homogenized in N-PER cocktail (10 μL for every 1 mg of tissue) using a hand homogenizer, and then processed as described in Section 4.3.3.
For bioanalytical evaluation, brain samples were homogenized in water (3 mL for every 1 g of brain tissue). Plasma and brain samples were then prepared by precipitating proteins and extracting analytes using acetonitrile with the addition of the internal standard: 150 μL of extraction solution was added to 50 μL of biological material, mixed for 1 min and centrifuged (12,900 RPM, 4 min, 4 °C), and the supernatant was collected for analysis. Standard solutions including calibration standards and quality control samples were prepared by spiking 45 μL of biological material with 5 μL of standard working solution, adding 150 μL of extraction solution, and then mixing, centrifuging, and collecting the supernatant for analysis. The concentrations of analytes in the plasma and brain samples were determined using a UPLC-MS/MS instrument (Agilent Technologies) and chromatographic columns (Agilent Zorbax Eclipse 50 × 2.1 mm; 1.7 μm).

H3 = molecular target: T1, H3 (Homo sapiens, UniProt Q9Y5N1); experiment: BioPrint Profile Panel; format: binding; details: Agonist, Receptor, read-out: % of specific inhibition
T1 construct: purchased Eurofins Discovery (Cerep) BioPrint Profile Panel
Text: (§1) The BioPrint® Profile Panel service offered by Eurofins Discovery (Poitiers, France) was chosen to perform selectivity analysis.

5-HT3 = molecular target: T2, 5-HT3 (Homo sapiens, UniProt P46098); experiment: BioPrint Profile Panel; format: binding; details: Antagonist, Ion Channel, read-out: % of specific inhibition
T2 construct: purchased Eurofins Discovery (Cerep) BioPrint Profile Panel
Text: as §1

CB1 = molecular target: T3, CB1 (Homo sapiens, UniProt P21554); experiment: BioPrint Profile Panel; format: binding; details: Agonist, Receptor, read-out: % of specific inhibition
T3 construct: purchased Eurofins Discovery (Cerep) BioPrint Profile Panel
Text: as §1

5-HT transporter = molecular target: T4, 5-HT transporter (Homo sapiens, UniProt P31645); experiment: BioPrint Profile Panel; format: binding; details: Antagonist, read-out: % of specific inhibition
T4 construct: purchased Eurofins Discovery (Cerep) BioPrint Profile Panel
Text: as §1

MC3 = molecular target: T5, MC3 (Homo sapiens, UniProt P41968); experiment: BioPrint Profile Panel; format: binding; details: Agonist, Receptor, read-out: % of specific inhibition
T5 construct: purchased Eurofins Discovery (Cerep) BioPrint Profile Panel
T5 sequence (P41968 whole entry): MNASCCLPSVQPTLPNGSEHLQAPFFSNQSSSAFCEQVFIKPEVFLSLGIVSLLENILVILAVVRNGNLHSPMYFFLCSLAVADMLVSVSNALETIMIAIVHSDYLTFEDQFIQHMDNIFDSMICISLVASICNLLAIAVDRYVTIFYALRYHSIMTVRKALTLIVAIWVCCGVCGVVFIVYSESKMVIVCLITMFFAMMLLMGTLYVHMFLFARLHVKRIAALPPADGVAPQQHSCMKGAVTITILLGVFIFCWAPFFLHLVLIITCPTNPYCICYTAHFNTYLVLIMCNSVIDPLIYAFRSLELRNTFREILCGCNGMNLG
Text: as §1

β2 = molecular target: T6, β2 (Homo sapiens, UniProt P07550); experiment: BioPrint Profile Panel; format: binding; details: Antagonist, Receptor, read-out: % of specific inhibition
T6 construct: purchased Eurofins Discovery (Cerep) BioPrint Profile Panel
Text: as §1

5-HT7 = molecular target: T7, 5-HT7 (Homo sapiens, UniProt P34969); experiment: BioPrint Profile Panel; format: binding; details: Agonist, Receptor, read-out: % of specific inhibition
T7 construct: purchased Eurofins Discovery (Cerep) BioPrint Profile Panel
T7 sequence (P34969 whole entry): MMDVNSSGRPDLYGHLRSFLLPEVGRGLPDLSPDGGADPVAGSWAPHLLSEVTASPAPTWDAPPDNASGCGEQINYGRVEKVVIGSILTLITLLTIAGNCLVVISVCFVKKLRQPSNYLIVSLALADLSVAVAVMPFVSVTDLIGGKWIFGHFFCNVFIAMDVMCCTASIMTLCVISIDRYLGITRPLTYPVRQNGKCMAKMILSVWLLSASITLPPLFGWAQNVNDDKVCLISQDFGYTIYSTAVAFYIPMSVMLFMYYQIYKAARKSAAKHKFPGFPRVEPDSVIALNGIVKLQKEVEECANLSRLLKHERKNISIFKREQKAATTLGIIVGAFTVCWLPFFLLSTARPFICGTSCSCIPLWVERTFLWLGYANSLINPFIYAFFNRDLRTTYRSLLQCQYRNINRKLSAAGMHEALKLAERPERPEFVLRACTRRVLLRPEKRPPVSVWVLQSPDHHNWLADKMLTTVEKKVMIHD
Text: as §1

GABAB(1b) = molecular target: T8, GABAB(1b) (Homo sapiens, UniProt Q9UBS5); experiment: BioPrint Profile Panel; format: binding; details: Antagonist, Receptor, read-out: % of specific inhibition
T8 construct: purchased Eurofins Discovery (Cerep) BioPrint Profile Panel
T8 sequence (Q9UBS5 1-844 isoform Q9UBS5-2): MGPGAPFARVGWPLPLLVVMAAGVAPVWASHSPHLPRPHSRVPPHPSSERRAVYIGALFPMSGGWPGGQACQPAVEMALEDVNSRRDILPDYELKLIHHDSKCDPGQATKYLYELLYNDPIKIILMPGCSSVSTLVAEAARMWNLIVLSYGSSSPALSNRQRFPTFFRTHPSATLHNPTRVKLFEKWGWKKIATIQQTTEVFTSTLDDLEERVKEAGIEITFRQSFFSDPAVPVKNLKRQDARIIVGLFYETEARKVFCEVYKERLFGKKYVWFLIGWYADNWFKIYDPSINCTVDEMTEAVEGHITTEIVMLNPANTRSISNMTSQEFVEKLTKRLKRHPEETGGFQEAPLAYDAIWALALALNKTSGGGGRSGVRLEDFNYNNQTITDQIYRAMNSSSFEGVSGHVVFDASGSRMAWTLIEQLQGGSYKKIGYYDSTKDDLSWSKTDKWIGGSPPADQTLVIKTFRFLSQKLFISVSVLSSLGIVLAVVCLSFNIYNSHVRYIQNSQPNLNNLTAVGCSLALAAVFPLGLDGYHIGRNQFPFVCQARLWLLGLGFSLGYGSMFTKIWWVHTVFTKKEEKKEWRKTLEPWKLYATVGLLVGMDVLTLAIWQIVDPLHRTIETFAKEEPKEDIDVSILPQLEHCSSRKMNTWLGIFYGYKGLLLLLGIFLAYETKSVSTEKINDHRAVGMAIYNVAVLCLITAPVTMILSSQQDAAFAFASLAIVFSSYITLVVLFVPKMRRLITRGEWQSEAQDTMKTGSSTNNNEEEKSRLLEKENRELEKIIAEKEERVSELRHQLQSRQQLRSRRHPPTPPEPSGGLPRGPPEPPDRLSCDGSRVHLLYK
T8 sequence (O75899 42-941 partner): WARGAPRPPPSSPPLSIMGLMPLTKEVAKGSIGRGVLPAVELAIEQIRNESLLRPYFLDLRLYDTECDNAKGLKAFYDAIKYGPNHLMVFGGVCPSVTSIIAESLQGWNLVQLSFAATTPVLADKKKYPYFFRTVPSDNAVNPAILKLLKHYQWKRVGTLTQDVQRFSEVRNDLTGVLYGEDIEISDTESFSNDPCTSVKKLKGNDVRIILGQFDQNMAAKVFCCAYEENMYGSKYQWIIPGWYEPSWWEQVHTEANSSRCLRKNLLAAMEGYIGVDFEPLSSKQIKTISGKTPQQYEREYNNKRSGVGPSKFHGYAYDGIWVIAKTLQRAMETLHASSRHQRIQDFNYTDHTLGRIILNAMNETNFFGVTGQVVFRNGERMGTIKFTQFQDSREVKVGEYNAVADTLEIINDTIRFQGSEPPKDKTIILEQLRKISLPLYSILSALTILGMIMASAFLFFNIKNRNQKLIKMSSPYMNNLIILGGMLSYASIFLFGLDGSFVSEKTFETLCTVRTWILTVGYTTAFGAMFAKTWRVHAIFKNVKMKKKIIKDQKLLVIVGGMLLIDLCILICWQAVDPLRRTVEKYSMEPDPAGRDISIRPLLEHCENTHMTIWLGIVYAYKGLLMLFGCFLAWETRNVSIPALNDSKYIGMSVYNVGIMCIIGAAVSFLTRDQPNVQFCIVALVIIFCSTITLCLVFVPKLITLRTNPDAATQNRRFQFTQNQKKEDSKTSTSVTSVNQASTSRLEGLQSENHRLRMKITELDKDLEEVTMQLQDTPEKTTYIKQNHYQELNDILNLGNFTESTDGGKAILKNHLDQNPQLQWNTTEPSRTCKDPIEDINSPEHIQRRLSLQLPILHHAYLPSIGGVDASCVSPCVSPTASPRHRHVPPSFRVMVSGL
Text: as §1

ẟ(DOP) = molecular target: T9, ẟ(DOP) (Homo sapiens, UniProt P41143); experiment: BioPrint Profile Panel; format: binding; details: Agonist, Receptor, read-out: % of specific inhibition
T9 construct: purchased Eurofins Discovery (Cerep) BioPrint Profile Panel
Text: as §1

MC1 = molecular target: T10, MC1 (Mus musculus, UniProt Q01727); experiment: BioPrint Profile Panel; format: binding; details: Agonist, Receptor, read-out: % of specific inhibition
T10 construct: purchased Eurofins Discovery (Cerep) BioPrint Profile Panel
Text: as §1

D1 = molecular target: T11, D1 (Homo sapiens, UniProt P21728); experiment: BioPrint Profile Panel; format: binding; details: Antagonist, Receptor, read-out: % of specific inhibition
T11 construct: purchased Eurofins Discovery (Cerep) BioPrint Profile Panel
T11 sequence (P21728 whole entry): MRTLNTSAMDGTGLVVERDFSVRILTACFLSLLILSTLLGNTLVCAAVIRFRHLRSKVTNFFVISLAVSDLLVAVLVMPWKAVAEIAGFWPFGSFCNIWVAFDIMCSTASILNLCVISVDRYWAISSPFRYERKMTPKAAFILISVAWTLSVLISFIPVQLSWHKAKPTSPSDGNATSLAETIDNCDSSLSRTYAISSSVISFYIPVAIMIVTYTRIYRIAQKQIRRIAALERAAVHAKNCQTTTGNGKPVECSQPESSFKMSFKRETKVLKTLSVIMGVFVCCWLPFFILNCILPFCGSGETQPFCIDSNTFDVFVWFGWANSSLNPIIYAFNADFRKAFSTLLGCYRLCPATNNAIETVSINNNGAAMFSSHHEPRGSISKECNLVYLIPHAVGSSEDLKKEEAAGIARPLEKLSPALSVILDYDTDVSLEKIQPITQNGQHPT
Text: as §1

CB2 = molecular target: T12, CB2 (Homo sapiens, UniProt P34972); experiment: BioPrint Profile Panel; format: binding; details: Agonist, Receptor, read-out: % of specific inhibition
T12 construct: purchased Eurofins Discovery (Cerep) BioPrint Profile Panel
Text: as §1

IP (PGI2) = molecular target: T13, IP (PGI2) (Homo sapiens, UniProt P43119); experiment: BioPrint Profile Panel; format: binding; details: Agonist, Receptor, read-out: % of specific inhibition
T13 construct: purchased Eurofins Discovery (Cerep) BioPrint Profile Panel
Text: as §1

AT2 = molecular target: T14, AT2 (Homo sapiens, UniProt P50052); experiment: BioPrint Profile Panel; format: binding; details: Agonist, Receptor, read-out: % of specific inhibition
T14 construct: purchased Eurofins Discovery (Cerep) BioPrint Profile Panel
T14 sequence (P50052 whole entry): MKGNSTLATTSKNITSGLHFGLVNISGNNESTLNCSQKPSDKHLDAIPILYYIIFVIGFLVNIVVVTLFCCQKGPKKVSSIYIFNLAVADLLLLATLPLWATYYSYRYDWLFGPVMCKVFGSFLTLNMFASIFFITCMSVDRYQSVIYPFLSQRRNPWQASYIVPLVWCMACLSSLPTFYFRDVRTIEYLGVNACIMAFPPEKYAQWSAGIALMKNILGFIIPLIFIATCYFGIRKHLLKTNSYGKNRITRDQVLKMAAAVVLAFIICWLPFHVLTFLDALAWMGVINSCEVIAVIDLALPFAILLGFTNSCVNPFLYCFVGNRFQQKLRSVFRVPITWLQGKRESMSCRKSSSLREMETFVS
Text: as §1

5-HT2A = molecular target: T15, 5-HT2A (Homo sapiens, UniProt P28223); experiment: BioPrint Profile Panel; format: binding; details: Agonist, Receptor, read-out: % of specific inhibition
T15 construct: purchased Eurofins Discovery (Cerep) BioPrint Profile Panel
T15 sequence (P28223 whole entry): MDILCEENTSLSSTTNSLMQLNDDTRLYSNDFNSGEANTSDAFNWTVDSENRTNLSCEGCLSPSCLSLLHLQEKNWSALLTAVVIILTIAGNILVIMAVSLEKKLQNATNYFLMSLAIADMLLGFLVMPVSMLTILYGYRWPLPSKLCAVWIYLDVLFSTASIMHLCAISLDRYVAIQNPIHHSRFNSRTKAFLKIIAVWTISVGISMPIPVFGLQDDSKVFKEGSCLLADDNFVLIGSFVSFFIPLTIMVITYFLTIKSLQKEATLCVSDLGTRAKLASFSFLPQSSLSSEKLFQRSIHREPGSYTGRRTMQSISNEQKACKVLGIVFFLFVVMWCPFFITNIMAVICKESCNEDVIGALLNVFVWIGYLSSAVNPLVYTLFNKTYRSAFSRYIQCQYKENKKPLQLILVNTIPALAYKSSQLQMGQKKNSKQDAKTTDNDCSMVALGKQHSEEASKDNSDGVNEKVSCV
Text: as §1

V2 = molecular target: T16, V2 (Homo sapiens, UniProt P30518); experiment: BioPrint Profile Panel; format: binding; details: Agonist, Receptor, read-out: % of specific inhibition
T16 construct: purchased Eurofins Discovery (Cerep) BioPrint Profile Panel
T16 sequence (P30518 whole entry): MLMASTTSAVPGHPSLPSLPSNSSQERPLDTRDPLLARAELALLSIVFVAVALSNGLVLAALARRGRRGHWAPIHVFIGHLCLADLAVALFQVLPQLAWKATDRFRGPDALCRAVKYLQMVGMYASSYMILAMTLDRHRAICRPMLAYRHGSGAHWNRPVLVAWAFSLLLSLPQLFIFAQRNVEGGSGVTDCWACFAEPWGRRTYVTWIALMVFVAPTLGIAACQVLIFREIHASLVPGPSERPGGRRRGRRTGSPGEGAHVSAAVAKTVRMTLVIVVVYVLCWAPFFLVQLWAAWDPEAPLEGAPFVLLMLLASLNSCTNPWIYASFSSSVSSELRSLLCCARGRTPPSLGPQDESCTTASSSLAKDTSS
Text: as §1

M4 = molecular target: T17, M4 (Homo sapiens, UniProt P08173); experiment: BioPrint Profile Panel; format: binding; details: Antagonist, Receptor, read-out: % of specific inhibition
T17 construct: purchased Eurofins Discovery (Cerep) BioPrint Profile Panel
Text: as §1

α2C = molecular target: T18, α2C (Homo sapiens, UniProt P18825); experiment: BioPrint Profile Panel; format: binding; details: Antagonist, Receptor, read-out: % of specific inhibition
T18 construct: purchased Eurofins Discovery (Cerep) BioPrint Profile Panel
Text: as §1

5-HT4e = molecular target: T19, 5-HT4e (Homo sapiens, UniProt Q13639); experiment: BioPrint Profile Panel; format: binding; details: Antagonist, Receptor, read-out: % of specific inhibition
T19 construct: purchased Eurofins Discovery (Cerep) BioPrint Profile Panel
T19 sequence (Q13639 1-378 isoform Q13639-5): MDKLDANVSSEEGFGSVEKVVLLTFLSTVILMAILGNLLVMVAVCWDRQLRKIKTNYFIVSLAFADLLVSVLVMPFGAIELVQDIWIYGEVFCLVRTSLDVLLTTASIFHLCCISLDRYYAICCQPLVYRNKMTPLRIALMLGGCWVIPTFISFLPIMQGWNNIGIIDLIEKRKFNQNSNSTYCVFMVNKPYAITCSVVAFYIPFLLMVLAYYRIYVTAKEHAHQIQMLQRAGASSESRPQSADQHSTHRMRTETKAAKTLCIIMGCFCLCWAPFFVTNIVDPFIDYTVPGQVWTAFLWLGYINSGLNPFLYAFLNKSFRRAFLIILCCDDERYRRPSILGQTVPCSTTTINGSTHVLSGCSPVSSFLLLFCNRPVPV
Text: as §1

Cl- channel = experiment: BioPrint Profile Panel; format: binding; details: 10 μM; Antagonist; Ion Channel
Text: as §1

SKCa channel = experiment: BioPrint Profile Panel; format: binding; details: 10 μM; Antagonist; Ion Channel
Text: as §1

A3 = molecular target: T20, A3 (Homo sapiens, UniProt P0DMS8); experiment: BioPrint Profile Panel; format: binding; details: Agonist, Receptor
T20 construct: purchased Eurofins Discovery (Cerep) BioPrint Profile Panel
T20 sequence (P0DMS8 whole entry): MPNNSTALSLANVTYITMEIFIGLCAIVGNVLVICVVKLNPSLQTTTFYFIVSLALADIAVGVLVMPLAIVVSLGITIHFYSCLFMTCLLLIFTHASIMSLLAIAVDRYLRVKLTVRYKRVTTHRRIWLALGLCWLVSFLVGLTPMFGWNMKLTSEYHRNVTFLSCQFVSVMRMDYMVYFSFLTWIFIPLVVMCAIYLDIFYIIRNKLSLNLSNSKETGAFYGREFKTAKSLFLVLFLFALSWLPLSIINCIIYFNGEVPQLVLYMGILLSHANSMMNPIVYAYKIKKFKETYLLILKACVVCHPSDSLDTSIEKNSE
Text: as §1

D2S = molecular target: T21, D2S (Homo sapiens, UniProt P14416); experiment: BioPrint Profile Panel; format: binding; details: Agonist, Receptor, read-out: % of specific inhibition
T21 construct: purchased Eurofins Discovery (Cerep) BioPrint Profile Panel
Text: as §1

5-HT1B = molecular target: T22, 5-HT1B (Rattus norvegicus, UniProt P28564); experiment: BioPrint Profile Panel; format: binding; details: Antagonist, Receptor, read-out: % of specific inhibition
T22 construct: purchased Eurofins Discovery (Cerep) BioPrint Profile Panel
Text: as §1

glycine = experiment: BioPrint Profile Panel; format: binding; details: 10 μM; Antagonist; Ion Channel
Text: as §1

BZD = experiment: BioPrint Profile Panel; format: binding; details: 10 μM, Agonist, Ion Channel
Text: as §1

[1] = male, BALB/c, mouse, in vivo, po, 50 mg/kg

O=c1cc(-c2ccccc2)oc2c(O)c(O)ccc12 [7,8-DHF, 7,8-dihydroxyflavone]
Detection in plasma or brain samples (in vivo; 7,8-DHF i.v. 1 mg/kg): not detectable | C brain, individual mice (in vivo; 7,8-DHF i.v. 1mg/kg, 5min): < LLQ | C plasma, individual mice (in vivo; 7,8-DHF i.v. 1mg/kg, 5min): < LLQ | C brain, individual mice (in vivo; 7,8-DHF i.v. 1mg/kg, 10 min): < LLQ | C plasma, individual mice (in vivo; 7,8-DHF i.v. 1mg/kg, 10 min): < LLQ | C brain, individual mice (in vivo; 7,8-DHF i.v. 1mg/kg, 30 min): < LLQ | C plasma, individual mice (in vivo; 7,8-DHF i.v. 1mg/kg, 30 min): < LLQ | C brain, individual mice (in vivo; 7,8-DHF i.v. 1mg/kg, 1h): < LLQ | C plasma, individual mice (in vivo; 7,8-DHF i.v. 1mg/kg, 1h): < LLQ | C brain, individual mice (in vivo; 7,8-DHF i.v. 1mg/kg, 2h): < LLQ | C plasma, individual mice (in vivo; 7,8-DHF i.v. 1mg/kg, 2h): < LLQ | C plasma, individual mice (in vivo; 7,8-DHF p.o 50mg/kg, 1h): < LLQ | C brain, individual mice (in vivo; 7,8-DHF p.o 50mg/kg, 4h): < LLQ | C plasma, individual mice (in vivo; 7,8-DHF p.o 50mg/kg, 4h): < LLQ | Brain concentration relative to plasma (in vivo; 7,8-DHF p.o. 50 mg/kg): 10 fold lower | Time at which plasma concentration fell under the detection limit (in vivo; 7,8-DHF p.o. 50 mg/kg): 1 h | AUC (in vivo; [1]): 20.9 ng·h/mL | Time of maximal plasma concentration (in vivo; [1]): 10 min | Tmax (in vivo; [1]): 9.6 min | Cmax (in vivo; male, BALB/c, mouse, in vivo, po, 50 mg/kg, brain, 7,8-DHF p.o. 50 mg/kg, read-out: Cmax): 6.35 ng/g | Cmax (in vivo; male, BALB/c, mouse, in vivo, po, 50 mg/kg, plasma, 7,8-DHF p.o. 50 mg/kg, read-out: Cmax): 77.4 ng/mL | Cmax (in vivo; plasma, 7,8-DHF p.o. 50 mg/kg, 50 mg/kg): 72.42 ng/mL | inhibition at 10 µM (H3): -6% | inhibition at 10 µM (5-HT3): -2% | inhibition at 10 µM (CB1): 1% | inhibition at 10 µM (5-HT transporter): -4% | inhibition at 10 µM (MC3): -5% | inhibition at 10 µM (β2): -5% | inhibition at 10 µM (5-HT7): 4% | inhibition at 10 µM (GABAB(1b)): -5% | inhibition at 10 µM (ẟ(DOP)): -5% | inhibition at 10 µM (MC1): -5% | inhibition at 10 µM (D1): -4% | inhibition at 10 µM (CB2): -3% | inhibition at 10 µM (IP (PGI2)): 17% | inhibition at 10 µM (AT2): 6% | inhibition at 10 µM (5-HT2A): -4% | inhibition at 10 µM (V2): -2% | inhibition at 10 µM (M4): -5% | inhibition at 10 µM (α2C): 1% | inhibition at 10 µM (5-HT4e): -11% | % of specific inhibition (Cl- channel): -7% | % of specific inhibition (SKCa channel): 4% | % Inhibition of Control Specific Binding (A3; 10 μM): 68.2% | inhibition at 10 µM (A3; read-out: % Inhibition of Control Specific Binding): 68% | inhibition at 10 µM (D2S): -15% | inhibition at 10 µM (5-HT1B): 3% | % of specific inhibition (glycine): -1% | % Inhibition of Control Specific Binding (BZD): 71% and 70.6%
